The text below walks through data of patent publication US20250171426A1, “PYRIMIDINEDIONE-BASED COMPOUNDS AS AXL, C-MET, AND MER INHIBITORS AND METHODS OF USE THEREOF” (CMG Pharmaceutical Co., Ltd., priority 2022, published 2025).

Bounds are passed on as bounds.

Type in all cases: biochemical
Conditions in all cases: 10 μM ATP, 60 min, ADP-GLO luminescence
On the technique in general: ADP-Glo first removes unused ATP, then detects ADP through luciferase.

The target of assay [1] is T1, MER (Homo sapiens, UniProt Q12866).
T1 sequence (Q12866 21-999): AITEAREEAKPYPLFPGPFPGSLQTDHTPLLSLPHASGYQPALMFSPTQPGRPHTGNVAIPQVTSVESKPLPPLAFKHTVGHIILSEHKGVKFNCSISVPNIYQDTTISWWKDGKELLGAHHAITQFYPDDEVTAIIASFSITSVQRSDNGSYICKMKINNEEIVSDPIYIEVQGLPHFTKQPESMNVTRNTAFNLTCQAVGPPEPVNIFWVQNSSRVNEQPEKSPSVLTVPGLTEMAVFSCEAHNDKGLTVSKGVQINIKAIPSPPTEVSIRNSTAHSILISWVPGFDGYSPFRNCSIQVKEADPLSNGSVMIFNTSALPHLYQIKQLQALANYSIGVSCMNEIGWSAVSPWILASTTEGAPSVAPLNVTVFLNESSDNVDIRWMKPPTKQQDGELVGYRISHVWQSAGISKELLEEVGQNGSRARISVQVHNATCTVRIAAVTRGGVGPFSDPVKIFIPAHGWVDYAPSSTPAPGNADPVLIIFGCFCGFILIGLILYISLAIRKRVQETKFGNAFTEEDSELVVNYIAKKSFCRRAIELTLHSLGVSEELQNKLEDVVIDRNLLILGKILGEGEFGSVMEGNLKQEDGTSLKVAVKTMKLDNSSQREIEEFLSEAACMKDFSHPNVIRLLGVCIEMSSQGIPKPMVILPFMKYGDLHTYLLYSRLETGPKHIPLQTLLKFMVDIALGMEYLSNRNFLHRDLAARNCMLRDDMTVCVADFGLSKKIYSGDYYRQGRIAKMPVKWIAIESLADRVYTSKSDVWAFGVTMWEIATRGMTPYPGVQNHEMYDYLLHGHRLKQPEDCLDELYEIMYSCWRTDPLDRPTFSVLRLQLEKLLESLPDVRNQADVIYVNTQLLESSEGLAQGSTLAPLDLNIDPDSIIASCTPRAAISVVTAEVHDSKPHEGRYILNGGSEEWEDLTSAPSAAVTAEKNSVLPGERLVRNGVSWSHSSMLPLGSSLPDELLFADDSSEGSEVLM
Kind of assay: Enzymatic assay (ADP-Glo kinase reaction), MER. The procedure:
(§1) All the kinase reactions were performed in 5 μL using tyrosine kinase buffer with 0.2 μg/μL poly (Glu4, Tyr1) substrate, 10 μM ATP, serial dilution of the inhibitor, and incubated at room temperature for 60 min. After the indicated incubation times, 5 μL ADP-GLO™ reagent (Promega, Madison, WI) was added to the reactions and the plate was incubated at room temperature for 40 min. Then, 10 μL of kinase detection reagent was added and after an incubation time of 40 min, luminescence was recorded and IC50 values were determined (Table 1). All 384-well assay plates were read using a GLOMAX™ Discover Microplate Luminometer from Promega (Madison, WI). To plot, analyze the data and calculate all kinase reaction biochemical values, both Microsoft Excel and Prism from GraphPad 7 Software (La Jolla, CA) were used.
as §1, with “3).” for “1).”

The target of assay [2] is T2, AXL (Homo sapiens, UniProt P30530).
T2 sequence (P30530 26-894): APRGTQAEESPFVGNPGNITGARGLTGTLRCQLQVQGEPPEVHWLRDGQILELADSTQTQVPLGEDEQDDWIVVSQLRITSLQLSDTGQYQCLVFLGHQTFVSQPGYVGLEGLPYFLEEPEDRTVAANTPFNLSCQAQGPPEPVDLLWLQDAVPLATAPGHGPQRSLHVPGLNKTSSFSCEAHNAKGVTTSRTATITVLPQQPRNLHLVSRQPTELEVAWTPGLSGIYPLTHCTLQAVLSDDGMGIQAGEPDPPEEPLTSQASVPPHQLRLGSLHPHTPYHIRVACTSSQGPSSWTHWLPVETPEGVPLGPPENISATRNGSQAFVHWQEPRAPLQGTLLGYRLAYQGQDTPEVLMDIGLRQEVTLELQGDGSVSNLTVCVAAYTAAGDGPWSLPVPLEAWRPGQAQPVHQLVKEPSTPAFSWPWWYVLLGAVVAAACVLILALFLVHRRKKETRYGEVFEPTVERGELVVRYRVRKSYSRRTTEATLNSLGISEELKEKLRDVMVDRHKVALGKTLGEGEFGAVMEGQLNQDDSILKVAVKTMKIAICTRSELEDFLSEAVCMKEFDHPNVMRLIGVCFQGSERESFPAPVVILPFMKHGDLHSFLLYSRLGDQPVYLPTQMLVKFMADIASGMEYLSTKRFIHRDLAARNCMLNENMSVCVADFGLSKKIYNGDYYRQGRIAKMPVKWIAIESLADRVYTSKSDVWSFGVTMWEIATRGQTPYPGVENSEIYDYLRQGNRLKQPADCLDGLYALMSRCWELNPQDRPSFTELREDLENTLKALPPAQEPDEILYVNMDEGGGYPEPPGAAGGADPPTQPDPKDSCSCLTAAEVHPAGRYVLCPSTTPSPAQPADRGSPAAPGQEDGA
Kind of assay: Enzymatic assay (ADP-Glo kinase reaction), AXL. As to the method: as §1, with “Then, 10 μL of kinase detection reagent was added and after an incubation time of 40 min, luminescence was recorded and IC50 values were determined (Table 1).” left out

The target of assay [3] is c-MET (Homo sapiens, UniProt P08581). Kind of assay: Enzymatic assay (ADP-Glo kinase reaction), c-MET. The procedure: as §1, with “Then, 10 μL of kinase detection reagent was added and after an incubation time of 40 min, luminescence was recorded and IC50 values were determined (Table 1).” left out
c-MET, sequence (P08581 25-1390): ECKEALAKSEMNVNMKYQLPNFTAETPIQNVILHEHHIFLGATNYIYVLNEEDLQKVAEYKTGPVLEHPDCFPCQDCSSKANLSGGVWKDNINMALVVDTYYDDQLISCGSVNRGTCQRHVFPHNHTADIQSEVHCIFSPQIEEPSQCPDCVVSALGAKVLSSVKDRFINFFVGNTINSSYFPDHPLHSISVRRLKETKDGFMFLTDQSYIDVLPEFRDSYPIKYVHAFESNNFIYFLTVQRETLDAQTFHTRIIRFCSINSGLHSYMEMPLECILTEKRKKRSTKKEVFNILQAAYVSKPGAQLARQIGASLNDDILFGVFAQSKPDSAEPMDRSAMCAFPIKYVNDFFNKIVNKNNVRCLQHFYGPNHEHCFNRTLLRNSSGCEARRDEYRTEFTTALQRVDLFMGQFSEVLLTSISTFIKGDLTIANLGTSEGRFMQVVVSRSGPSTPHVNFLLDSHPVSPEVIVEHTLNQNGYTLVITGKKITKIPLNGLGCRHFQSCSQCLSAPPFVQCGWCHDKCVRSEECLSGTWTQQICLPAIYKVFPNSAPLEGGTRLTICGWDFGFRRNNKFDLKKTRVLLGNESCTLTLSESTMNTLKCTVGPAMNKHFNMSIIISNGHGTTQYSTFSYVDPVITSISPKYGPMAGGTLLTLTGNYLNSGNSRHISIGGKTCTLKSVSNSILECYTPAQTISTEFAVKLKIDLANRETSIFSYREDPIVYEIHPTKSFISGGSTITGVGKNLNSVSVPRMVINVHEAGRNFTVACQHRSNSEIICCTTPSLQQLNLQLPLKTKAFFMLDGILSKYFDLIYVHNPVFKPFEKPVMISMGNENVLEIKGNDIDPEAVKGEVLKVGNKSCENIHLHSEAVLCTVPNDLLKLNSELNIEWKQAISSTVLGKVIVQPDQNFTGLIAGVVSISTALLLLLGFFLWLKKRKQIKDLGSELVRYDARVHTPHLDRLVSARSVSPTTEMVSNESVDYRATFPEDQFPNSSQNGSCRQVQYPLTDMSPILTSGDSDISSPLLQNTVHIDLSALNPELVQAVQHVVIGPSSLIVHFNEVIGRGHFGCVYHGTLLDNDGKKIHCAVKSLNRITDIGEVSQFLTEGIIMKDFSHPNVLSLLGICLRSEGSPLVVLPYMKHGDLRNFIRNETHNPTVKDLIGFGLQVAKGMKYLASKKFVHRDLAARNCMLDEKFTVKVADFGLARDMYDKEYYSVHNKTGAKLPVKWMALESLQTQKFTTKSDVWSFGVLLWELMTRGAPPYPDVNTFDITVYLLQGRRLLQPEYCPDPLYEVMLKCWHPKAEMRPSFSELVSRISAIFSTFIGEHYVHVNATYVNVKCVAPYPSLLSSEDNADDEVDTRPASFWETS

By IC50 is commonly meant the midpoint of a concentration-inhibition curve. For `CN1CCC(CC#Cc2c(Oc3ccc(NC(=O)c4cn(C5CCOCC5)c(=O)n(-c5ccc(F)cc5)c4=O)cc3F)ccnc2N)CC1` [Example 60, N-(4-(2-amino-3-(3-(1-methylpiperidin-4-yl)prop-1-ynyl)pyridin-4-yloxy)-3-fluorophenyl)-3-(4-fluorophenyl)-2,4-dioxo-1-(tetrahydro-2H-pyran-4-yl)-1,2,3,4-tetrahydropyrimidine-5-carboxamide], the IC50 in assay [1] was less than 10 nM; in assay [2], less than 10 nM; in assay [3], less than 100 nM.
For `CN(C)C(=O)Cn1cc(C(=O)Nc2ccc(Oc3ccnc(N)c3C#CC(C)(C)N3CCNCC3)c(F)c2)c(=O)n(-c2ccc(F)cc2)c1=O` [Example 35, N-(4-((2-amino-3-(3-methyl-3-(piperazin-1-yl)but-1-yn-1-yl)pyridin-4-yl)oxy)-3-fluorophenyl)-1-(2-(dimethylamino)-2-oxoethyl)-3-(4-fluorophenyl)-2,4-dioxo-1,2,3,4-tetrahydropyrimidine-5-carboxamide], the values for the IC50 in assay [1], in assay [2] and in assay [3] were less than 100 nM, less than 10000 nM and less than 10000 nM, respectively.
In the case of `COCCN1CCN(CC#Cc2c(Oc3ccc(NC(=O)c4cn(C(C)C)c(=O)n(-c5ccc(F)cc5)c4=O)cc3F)ccnc2N)CC1` [Example 18, N-(4-(2-amino-3-(3-(4-(2-methoxyethyl)piperazin-1-yl)prop-1-ylny)pyridin-4-yloxy)-3-fluorophenyl)-3-(4-fluorophenyl)-1-isopropyl-2,4-dioxo-1,2,3,4-tetrahydropyrimidine-5-carboxamide], the concentration for half-maximal inhibition (IC50) in assay [1], in assay [2] and in assay [3] was less than 10 nM in each case.
As for `COCCN1CCN(C(=O)CCc2c(Oc3ccc(NC(=O)c4cn(C(C)C)c(=O)n(-c5ccc(F)cc5)c4=O)cc3F)ccnc2N)CC1` [Example 21, N-(4-(2-amino-3-(3-(4-(2-methoxyethyl)piperazin-1-yl)-3-oxopropyl)pyridin-4-yloxy)-3-fluorophenyl)-3-(4-fluorophenyl)-1-isopropyl-2,4-dioxo-1,2,3,4-tetrahydropyrimidine-5-carboxamide], the figures for the IC50 in assay [1], in assay [2] and in assay [3] were less than 1000 nM, less than 1000 nM and less than 10000 nM, respectively.
On to `CN1CCN(C(C)(C)C#Cc2c(Oc3ccc(NC(=O)c4cn(C5CCOCC5)c(=O)n(-c5ccc(F)cc5)c4=O)cc3F)ccnc2N)CC1` [Example 57, N-(4-(2-amino-3-(3-methyl-3-(4-methylpiperazin-1-yl)but-1-ynyl)pyridin-4-yloxy)-3-fluorophenyl)-3-(4-fluorophenyl)-2,4-dioxo-1-(tetrahydro-2H-pyran-4-yl)-1,2,3,4-tetrahydropyrimidine-5-carboxamide], for which the IC50 is less than 10 nM in assay [1], less than 100 nM in assay [2] and less than 100 nM in assay [3].
In the case of `CC(C)n1cc(C(=O)Nc2ccc(Oc3ccnc(N)c3C#CC3CCN(C)CC3)c(F)c2)c(=O)n(-c2ccc(F)cc2)c1=O` [Example 23, N-(4-(2-amino-3-((1-methylpiperidin-4-yl)ethynyl)pyridin-4-yloxy)-3-fluorophenyl)-3-(4-fluorophenyl)-1-isopropyl-2,4-dioxo-1,2,3,4-tetrahydropyrimidine-5-carboxamide], the values for the IC50 in assay [1], in assay [2] and in assay [3] were less than 10 nM, less than 10 nM and less than 1000 nM, respectively.
In the case of `Nc1nccc(Oc2ccc(NC(=O)c3cn(C4CCOCC4)c(=O)n(-c4ccc(F)cc4)c3=O)cc2F)c1C#CCC1CCNCC1` [Example 59, N-(4-(2-amino-3-(3-(piperidin-4-yl)prop-1-ynyl)pyridin-4-yloxy)-3-fluorophenyl)-3-(4-fluorophenyl)-2,4-dioxo-1-(tetrahydro-2H-pyran-4-yl)-1,2,3,4-tetrahydropyrimidine-5-carboxamide], the figures for the IC50 in assay [1], in assay [2] and in assay [3] were less than 10 nM, less than 100 nM and less than 100 nM, respectively.
Consider `Cn1nc(C(=O)Nc2ccc(Oc3ccnc(N)c3C#CCN3CCOCC3)c(F)c2)c(=O)n(-c2ccc(F)cc2)c1=O` [Example 49, N-(4-(2-amino-3-(3-morpholinoprop-1-ynyl)pyridin-4-yloxy)-3-fluorophenyl)-4-(4-fluorophenyl)-2-methyl-3,5-dioxo-2,3,4,5-tetrahydro-1,2,4-triazine-6-carboxamide], for which the values for the IC50 in assay [1], in assay [2] and in assay [3] were less than 100 nM, less than 100 nM and less than 1000 nM, respectively.
As to `CC(C)(C#Cc1c(Oc2ccc(NC(=O)c3c[nH]c(=O)n(-c4ccc(F)cc4)c3=O)cc2F)ccnc1N)N1CCOCC1` [Example 50, N-(4-(2-amino-3-(3-methyl-3-morpholinobut-1-ynyl)pyridin-4-yloxy)-3-fluorophenyl)-3-(4-fluorophenyl)-2,4-dioxo-1,2,3,4-tetrahydropyrimidine-5-carboxamide], the IC50 in assay [1] was less than 100 nM; in assay [2], less than 10 nM; in assay [3], less than 100 nM.
Regarding `C=CCn1cc(C(=O)Nc2ccc(Oc3ccnc(N)c3C#CCC3CCN(C)CC3)c(F)c2)c(=O)n(CC=C)c1=O` [Example 69, 1,3-diallyl-N-(4-(2-amino-3-(3-(1-methylpiperdin-4-yl)prop-1-ynyl)pyridin-4-yloxy)-3-fluorophenyl)-2,4-dioxo-1,2,3,4-tetrahydropyrimidine-5-carboxamide], the results for the half-inhibitory concentration (IC50) in assay [1], in assay [2] and in assay [3] were less than 100 nM, less than 100 nM and less than 1000 nM, respectively.
Take `COCCN1CCC(C#Cc2c(Oc3ccc(NC(=O)c4cn(C(C)C)c(=O)n(-c5ccc(F)cc5)c4=O)cc3F)ccnc2N)CC1` [Example 16]: the half-maximal inhibitory concentration (IC50) in assay [1], in assay [2] and in assay [3] was less than 10 nM each time.
